From patent US11084790B2, “Insoluble complex or solvate thereof, pharmaceutical composition and use thereof” (Fruithy Holdings Limited, priority 2017, dated 2021)
Converted amounts (≈) assume the structure as drawn.

Assay: Test on the solubility in a simulated body fluid
Assay type: physicochemical
Conditions: simulated body fluid, 0.01 M PBS at pH 7.4
Method: Test on the Solubility in a Simulated Body Fluid
The concentration of the drug dissolved in the PBS buffered solution was determined with an HPLC-a method.

SMILES	solubility at 24 h (phosphate buffered saline (simulated body fluid), 37 °C, aqueous buffer, thermodynamic from solid, read-out: Saturated solubility)	Saturated solubility
CCCN1CCCC[C@H]1C(=O)Nc1c(C)cccc1C [Ropivacaine free base, reference compound]	1360 µM (≈ 373 µg/mL)	
CCCCN1CCCCC1C(=O)Nc1c(C)cccc1C.CCCCN1CCCCC1C(=O)Nc1c(C)cccc1C.O=C(O)c1cc2ccccc2c(Cc2c(O)c(C(=O)O)cc3ccccc23)c1O [bis(bupivacaine) pamoate]		0.3 mM
